Consider 16 molecules from PubChem BioAssay AID248 (DTP/NCI, 2004).

Each structure is given as a SMILES string. Several values for one entry are separate records, joined by “and”; a condition that tells them apart may be missing. Identical values can stand only once. Inconclusive results and toxic doses are left out.

For the test, the system named is L1210 leukemia ip in BDF1 mice, survival T/C. Description: NCI In Vivo Anticancer Drug Screen. Data for tumor model L1210 Leukemia (intraperitoneal) in B6D2F1 (BDF1) mice. The following applies: endpoint: mean survival time, higher = longer survival. An outline of the steps:
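Survival endpoint. Drug-treated group vs vehicle group, expressed as T divided by C. Tumor passaged by transplantation.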

Setting [1] is: dose: 100.0 mg/kg/injection, schedule: Q01DX001 (ip), vehicle: carboxymethylcellulose (CMC).
[2] abbreviates: dose: 200.0 mg/kg/injection, schedule: Q01DX001 (ip), vehicle: carboxymethylcellulose (CMC).
Setting [3] is: dose: 100.0 mg/kg/injection, schedule: Q01DX009 (ip), vehicle: Klucel (hydroxypropylcellulose) (HPC).
[4] abbreviates: dose: 200.0 mg/kg/injection, schedule: Q01DX009 (ip), vehicle: Klucel (hydroxypropylcellulose) (HPC).
The mark [5] stands for this setting: dose: 400.0 mg/kg/injection, schedule: Q01DX009 (ip), vehicle: Klucel (hydroxypropylcellulose) (HPC).
[6] abbreviates: dose: 12.5 mg/kg/injection, schedule: Q01DX009 (ip), vehicle: saline with Tween-80.
Setting [7] is: dose: 25.0 mg/kg/injection, schedule: Q01DX009 (ip), vehicle: saline with Tween-80.
Setting [8] is: dose: 25.0 mg/kg/injection, schedule: Q04DX003 (ip), vehicle: saline with Tween-80.
[9] abbreviates: dose: 100.0 mg/kg/injection, schedule: Q04DX003 (ip), vehicle: Klucel (hydroxypropylcellulose) (HPC).
[10] abbreviates: dose: 50.0 mg/kg/injection, schedule: Q01DX009 (ip), vehicle: saline with Tween-80.
Where [11] appears, read: dose: 100.0 mg/kg/injection, schedule: Q01DX009 (ip), vehicle: saline with Tween-80.
Setting [12] is: dose: 100.0 mg/kg/injection, schedule: Q04DX003 (ip), vehicle: saline with Tween-80.

With `CCCCCCCCCCCCCCCCS(=O)(=O)N/N=C/c1ccc([N+](=O)[O-])cc1`, the T/C was 94 % of control under setting [1]; 87 % of control under setting [2]; 105 % of control (dose: 400.0 mg/kg/injection, schedule: Q01DX001 (ip), vehicle: carboxymethylcellulose (CMC)).
As for `O=[N+]([O-])c1ccc(Oc2ccc(S(=O)(=O)c3ccc(Oc4ccc([N+](=O)[O-])cc4)c([N+](=O)[O-])c3)cc2[N+](=O)[O-])cc1`, the T/C reads like this: (dose: 100.0 mg/kg/injection, schedule: Q01DX005 (ip), vehicle: Klucel (hydroxypropylcellulose) (HPC)) 101 % of control; under setting [3], 102 % of control; (dose: 100.0 mg/kg/injection, schedule: Q04DX002 (ip), vehicle: Klucel (hydroxypropylcellulose) (HPC)) 110 % of control; (dose: 200.0 mg/kg/injection, schedule: Q01DX005 (ip), vehicle: Klucel (hydroxypropylcellulose) (HPC)) 97 % of control; under setting [4], 102 % of control; (dose: 200.0 mg/kg/injection, schedule: Q04DX002 (ip), vehicle: Klucel (hydroxypropylcellulose) (HPC)) 96 % of control. The T/C reads like this: (dose: 400.0 mg/kg/injection, schedule: Q01DX005 (ip), vehicle: Klucel (hydroxypropylcellulose) (HPC)) 90 % of control; under setting [5], 98 % of control; (dose: 400.0 mg/kg/injection, schedule: Q04DX002 (ip), vehicle: Klucel (hydroxypropylcellulose) (HPC)) 100 % of control.
Regarding `O=C(CCl)c1c(O)cc(O)cc1O`, the T/C is, setting by setting: (dose: 75.0 mg/kg/injection, schedule: Q01DX001 (ip), vehicle: other) 106 % of control; (dose: 150.0 mg/kg/injection, schedule: Q01DX001 (ip), vehicle: other) 106 % of control; (dose: 300.0 mg/kg/injection, schedule: Q01DX001 (ip), vehicle: other) 92 % of control.
As for `NC(=O)Cn1cnc2c(=S)nc[nH]c21`, the T/C (dose: 6.25 mg/kg/injection, schedule: Q01DX009 (ip), vehicle: saline with Tween-80) was 109 % of control; the T/C under setting [6] is 104 % of control; the T/C (dose: 12.5 mg/kg/injection, schedule: Q04DX003 (ip), vehicle: saline with Tween-80) is 104 % of control; the T/C under setting [7] was 101 % of control; the T/C under setting [8] is 102 % of control.
Turning to `CCN(CC)c1ccc(NC(C)=O)cc1`, the T/C (dose: 12.5 mg/kg/injection, schedule: Q01DX009 (ip), vehicle: Klucel (hydroxypropylcellulose) (HPC)) is 106 % of control; the T/C (dose: 12.5 mg/kg/injection, schedule: Q04DX003 (ip), vehicle: Klucel (hydroxypropylcellulose) (HPC)) is 92 % of control; the T/C (dose: 25.0 mg/kg/injection, schedule: Q01DX009 (ip), vehicle: Klucel (hydroxypropylcellulose) (HPC)) was 97 % of control; the T/C (dose: 25.0 mg/kg/injection, schedule: Q04DX003 (ip), vehicle: Klucel (hydroxypropylcellulose) (HPC)) was 91 % of control; the T/C (dose: 50.0 mg/kg/injection, schedule: Q01DX009 (ip), vehicle: Klucel (hydroxypropylcellulose) (HPC)) was 95 % of control.
For the molecule `CCOC(=O)C1C(C)NC(C)C(C(=O)OCC)C1c1ccccc1Cl` (stereo not drawn), the T/C under setting [3] was 97 % of control, the T/C under setting [4] is 98 % of control and the T/C under setting [5] was 93 % of control.
In the case of `Cc1nc(-c2ccc(N=Cc3ccc(N(CCOS(C)(=O)=O)CCOS(C)(=O)=O)cc3)cc2)c(C)s1`, the T/C was 109 % of control (dose: 2.5 mg/kg/injection, schedule: Q04DX003 (ip), vehicle: Klucel (hydroxypropylcellulose) (HPC)); 111 % of control (dose: 5.0 mg/kg/injection, schedule: Q04DX003 (ip), vehicle: Klucel (hydroxypropylcellulose) (HPC)); 122 % of control (dose: 10.0 mg/kg/injection, schedule: Q04DX003 (ip), vehicle: Klucel (hydroxypropylcellulose) (HPC)); 171 % of control (dose: 40.0 mg/kg/injection, schedule: Q04DX003 (ip), vehicle: Klucel (hydroxypropylcellulose) (HPC)); 117 % of control (dose: 80.0 mg/kg/injection, schedule: Q04DX003 (ip), vehicle: Klucel (hydroxypropylcellulose) (HPC)); 100 % of control under setting [9].
Turning to `[NH-]C(CC(N)=O)C(=O)O.[NH-]C(CC(N)=O)C(=O)O.[Zn+2]` (stereo not drawn), the T/C was 92 % of control (dose: 25.0 mg/kg/injection, schedule: Q04DX002 (ip), vehicle: saline) and 116 % of control (dose: 50.0 mg/kg/injection, schedule: Q04DX002 (ip), vehicle: saline).
Take `CC[N+](CC)(CC)CC(=O)NCc1ccco1`: the T/C was 105 % of control (dose: 50.0 mg/kg/injection, schedule: Q01DX001 (ip), vehicle: carboxymethylcellulose (CMC)); 103 % of control (dose: 50.0 mg/kg/injection, schedule: Q01DX009 (ip), vehicle: carboxymethylcellulose (CMC)); 94 % of control (dose: 50.0 mg/kg/injection, schedule: Q04DX003 (ip), vehicle: carboxymethylcellulose (CMC)); 99 % of control under setting [1]; 103 % of control and 104 % of control (dose: 100.0 mg/kg/injection, schedule: Q01DX009 (ip), vehicle: carboxymethylcellulose (CMC)); 95 % of control and 103 % of control (dose: 100.0 mg/kg/injection, schedule: Q04DX002 (ip), vehicle: carboxymethylcellulose (CMC)). Further, the T/C (dose: 100.0 mg/kg/injection, schedule: Q04DX003 (ip), vehicle: carboxymethylcellulose (CMC)) was 102 % of control; the T/C under setting [2] was 99 % of control; the T/C (dose: 200.0 mg/kg/injection, schedule: Q01DX009 (ip), vehicle: carboxymethylcellulose (CMC)) was 101 % of control and 90 % of control; the T/C (dose: 200.0 mg/kg/injection, schedule: Q04DX002 (ip), vehicle: carboxymethylcellulose (CMC)) is 97 % of control and 92 % of control; the T/C (dose: 200.0 mg/kg/injection, schedule: Q04DX003 (ip), vehicle: carboxymethylcellulose (CMC)) was 102 % of control; the T/C (dose: 400.0 mg/kg/injection, schedule: Q04DX002 (ip), vehicle: carboxymethylcellulose (CMC)) is 90 % of control.
Take `O=C(Nc1ccc(Cl)c(C(F)(F)F)c1)Oc1ccccn1`: the T/C is, setting by setting: under setting [6], 101 % of control; under setting [7], 99 % of control; under setting [10], 92 % of control; under setting [11], 93 % of control.
On to `CCOC(=O)c1cc(Cl)c(O)c(Cl)c1`, for which the T/C was 100 % of control (dose: 25.0 mg/kg/injection, schedule: Q01DX009 (ip), vehicle: gum acacia); 98 % of control (dose: 50.0 mg/kg/injection, schedule: Q01DX009 (ip), vehicle: gum acacia); 98 % of control and 100 % of control (dose: 100.0 mg/kg/injection, schedule: Q01DX009 (ip), vehicle: gum acacia); 93 % of control under setting [9]; 103 % of control (dose: 200.0 mg/kg/injection, schedule: Q04DX003 (ip), vehicle: Klucel (hydroxypropylcellulose) (HPC)); 95 % of control (dose: 400.0 mg/kg/injection, schedule: Q04DX003 (ip), vehicle: Klucel (hydroxypropylcellulose) (HPC)).
As to `CCCCCCCCCCCCCCCCCC(=O)[O][Pb]([CH3])([CH3])[CH3]`, the T/C (dose: 25.0 mg/kg/injection, schedule: Q04DX002 (ip), vehicle: Klucel (hydroxypropylcellulose) (HPC)) was 97 % of control.
As to `COc1ccc(/C=N/NC(=O)c2ccco2)cc1OC`, the T/C is, setting by setting: (dose: 100.0 mg/kg/injection, schedule: Q01DX001 (ip), vehicle: other) 93 % of control; (dose: 400.0 mg/kg/injection, schedule: Q01DX001 (ip), vehicle: other) 96 % of control.
`O=C(O)C1(C(=O)O)CCC1c1ccccc1` (stereo not drawn): the T/C is, setting by setting: (dose: 100.0 mg/kg/injection, schedule: Q01DX001 (ip), vehicle: saline) 94 % of control; (dose: 200.0 mg/kg/injection, schedule: Q01DX001 (ip), vehicle: saline) 113 % of control; (dose: 400.0 mg/kg/injection, schedule: Q01DX001 (ip), vehicle: saline) 102 % of control.
Turning to `CC1CCC(=C(c2ccccc2)c2ccccc2)C(C)N1C` (stereo not drawn), the T/C is, setting by setting: under setting [7], 98 % of control; under setting [8], 107 % of control; under setting [10], 98 % of control; (dose: 50.0 mg/kg/injection, schedule: Q04DX003 (ip), vehicle: saline with Tween-80) 96 % of control; under setting [11], 90 % of control; under setting [12], 98 % of control and 101 % of control.
On to `CCCCCC1(O)C2CCCC1CCC2` (stereo not drawn), for which the T/C is 94 % of control under setting [12]; 97 % of control (dose: 200.0 mg/kg/injection, schedule: Q04DX003 (ip), vehicle: saline with Tween-80); 105 % of control (dose: 400.0 mg/kg/injection, schedule: Q04DX003 (ip), vehicle: saline with Tween-80).
